According to the CheMixHub viscosity set:

Assay: xn = mol fraction of the nth substance listed

NCCN + O
Details	viscosity [mPa·s]
298.15 K, 101 kPa, x1 = 0.044	1.221
298.15 K, 101 kPa, x1 = 0.086	1.932
298.15 K, 101 kPa, x1 = 0.161	4.028
298.15 K, 101 kPa, x1 = 0.194	5.2
298.15 K, 101 kPa, x1 = 0.245	6.69
298.15 K, 101 kPa, x1 = 0.3	8.057
298.15 K, 101 kPa, x1 = 0.33	8.351
298.15 K, 101 kPa, x1 = 0.35	8.258
298.15 K, 101 kPa, x1 = 0.374	7.825
298.15 K, 101 kPa, x1 = 0.387	7.734
298.15 K, 101 kPa, x1 = 0.397	7.379
298.15 K, 101 kPa, x1 = 0.416	7.048
298.15 K, 101 kPa, x1 = 0.441	6.544
298.15 K, 101 kPa, x1 = 0.45	6.374
298.15 K, 101 kPa, x1 = 0.474	6.012
298.15 K, 101 kPa, x1 = 0.502	5.885
298.15 K, 101 kPa, x1 = 0.517	5.667
298.15 K, 101 kPa, x1 = 0.528	5.43
298.15 K, 101 kPa, x1 = 0.55	4.61
298.15 K, 101 kPa, x1 = 0.599	3.684
298.15 K, 101 kPa, x1 = 0.664	3.054
298.15 K, 101 kPa, x1 = 0.699	2.569
298.15 K, 101 kPa, x1 = 0.801	1.94
298.15 K, 101 kPa, x1 = 0.9	1.533
303.15 K, 101.3 kPa, x1 = 0.1138	2.607
303.15 K, 101.3 kPa, x1 = 0.2306	6.369
303.15 K, 101.3 kPa, x1 = 0.3102	7.766
303.15 K, 101.3 kPa, x1 = 0.4116	6.837
303.15 K, 101.3 kPa, x1 = 0.5452	4.416
303.15 K, 101.3 kPa, x1 = 0.6294	3.321
303.15 K, 101.3 kPa, x1 = 0.7296	2.434
303.15 K, 101.3 kPa, x1 = 0.8507	1.789
303.15 K, 101.33 kPa, x1 = 0.05	1.368
303.15 K, 101.33 kPa, x1 = 0.0999	2.291
303.15 K, 101.33 kPa, x1 = 0.15	3.635
303.15 K, 101.33 kPa, x1 = 0.1998	5.292
303.15 K, 101.33 kPa, x1 = 0.2488	6.797
303.15 K, 101.33 kPa, x1 = 0.2749	7.372
303.15 K, 101.33 kPa, x1 = 0.2997	7.678
303.15 K, 101.33 kPa, x1 = 0.3246	7.767
303.15 K, 101.33 kPa, x1 = 0.3488	7.67
303.15 K, 101.33 kPa, x1 = 0.3739	7.384
303.15 K, 101.33 kPa, x1 = 0.3944	7.02
303.15 K, 101.33 kPa, x1 = 0.4542	5.965
308.15 K, 101.3 kPa, x1 = 0.1138	2.203
308.15 K, 101.3 kPa, x1 = 0.2306	5.069
308.15 K, 101.3 kPa, x1 = 0.3102	6.072
308.15 K, 101.3 kPa, x1 = 0.4116	5.411
308.15 K, 101.3 kPa, x1 = 0.5452	3.639
308.15 K, 101.3 kPa, x1 = 0.6294	2.793
308.15 K, 101.3 kPa, x1 = 0.7296	2.01
308.15 K, 101.3 kPa, x1 = 0.8507	1.574
308.15 K, 101.33 kPa, x1 = 0.05	1.208
308.15 K, 101.33 kPa, x1 = 0.0999	1.971
308.15 K, 101.33 kPa, x1 = 0.15	3.059
308.15 K, 101.33 kPa, x1 = 0.1998	4.347
308.15 K, 101.33 kPa, x1 = 0.2488	5.484
308.15 K, 101.33 kPa, x1 = 0.2749	5.92
308.15 K, 101.33 kPa, x1 = 0.2997	6.133
308.15 K, 101.33 kPa, x1 = 0.3246	6.213
313.15 K, 101.3 kPa, x1 = 0.1138	1.911
313.15 K, 101.3 kPa, x1 = 0.2306	4.122
313.15 K, 101.3 kPa, x1 = 0.3102	4.906
313.15 K, 101.3 kPa, x1 = 0.4116	4.41
313.15 K, 101.3 kPa, x1 = 0.5452	3.07
313.15 K, 101.3 kPa, x1 = 0.6294	2.402
313.15 K, 101.3 kPa, x1 = 0.7296	1.842
313.15 K, 101.3 kPa, x1 = 0.8507	1.416
318.15 K, 101.3 kPa, x1 = 0.1138	1.652
318.15 K, 101.3 kPa, x1 = 0.2306	3.388
318.15 K, 101.3 kPa, x1 = 0.3102	3.963
318.15 K, 101.3 kPa, x1 = 0.4116	3.585
318.15 K, 101.3 kPa, x1 = 0.5452	2.574
318.15 K, 101.3 kPa, x1 = 0.6294	2.066
318.15 K, 101.3 kPa, x1 = 0.7296	1.613
318.15 K, 101.3 kPa, x1 = 0.8507	1.258
323.15 K, 101 kPa, x1 = 0.044	0.684
323.15 K, 101 kPa, x1 = 0.086	0.92
323.15 K, 101 kPa, x1 = 0.161	1.549
323.15 K, 101 kPa, x1 = 0.194	1.881
323.15 K, 101 kPa, x1 = 0.245	2.184
323.15 K, 101 kPa, x1 = 0.3	2.551
323.15 K, 101 kPa, x1 = 0.33	2.571
323.15 K, 101 kPa, x1 = 0.35	2.643
323.15 K, 101 kPa, x1 = 0.374	2.423
323.15 K, 101 kPa, x1 = 0.387	2.401
323.15 K, 101 kPa, x1 = 0.397	2.306
323.15 K, 101 kPa, x1 = 0.416	2.291
323.15 K, 101 kPa, x1 = 0.441	2.214
323.15 K, 101 kPa, x1 = 0.45	2.069
323.15 K, 101 kPa, x1 = 0.474	2.058
323.15 K, 101 kPa, x1 = 0.502	1.991
323.15 K, 101 kPa, x1 = 0.517	1.919
323.15 K, 101 kPa, x1 = 0.528	1.907
323.15 K, 101 kPa, x1 = 0.55	1.733
323.15 K, 101 kPa, x1 = 0.599	1.539
323.15 K, 101 kPa, x1 = 0.664	1.32
323.15 K, 101 kPa, x1 = 0.699	1.174
323.15 K, 101 kPa, x1 = 0.801	0.978
323.15 K, 101 kPa, x1 = 0.9	0.847

NCCN + OCCCCO
viscosity [mPa·s], 101 kPa
Details	293.15 K	298.15 K	303.15 K	308.15 K	313.15 K	318.15 K
x1 = 0.0733	100	74.8	55.2	43.2	33.4	–
x1 = 0.1427	101	75.2	55.3	44.5	33.8	–
x1 = 0.2094	98.8	72.8	53.1	42.5	32	28.8
x1 = 0.2728	92.3	67.6	49.1	39.1	29.5	25.8
x1 = 0.3334	82.3	60.1	43.5	34.4	25.7	22.6
x1 = 0.3913	69.3	50.5	36.8	29.2	22	19.3
x1 = 0.4467	55.9	40.8	29.9	23.7	18.2	16.1
x1 = 0.4999	42.7	31.5	23.4	19	14.5	12.9
x1 = 0.551	32.1	23.8	18	14.6	11.3	10.3
x1 = 0.5999	23.8	17.9	13.7	11.3	8.84	8.14
x1 = 0.6469	17.4	13.2	10.2	8.63	7.05	6.33
x1 = 0.6921	12.7	9.92	7.8	6.62	5.34	4.99
x1 = 0.7358	9.34	7.44	5.91	5.11	4.17	3.95
x1 = 0.7777	7.02	5.61	4.57	4	3.28	3.13
x1 = 0.8181	5.28	4.3	3.53	3.15	2.61	2.51
x1 = 0.8572	4.06	3.38	2.78	2.5	2.1	2.02
x1 = 0.9311	2.51	2.11	1.78	1.63	1.41	1.37
